Assay results reported in US7166581B1, “Treatment of chemotherapeutic agent and antiviral agent toxicity with acylated pyrimidine nucleosides” (Wellstat Therapeutics Corporation, priority 1987, dated 2007).

Columns and labels:
[1] = system: hematopoietic system (5-FU toxicity); experiment: Acyl derivatives of uridine i.p. vs bone marrow toxicity of 5-FU (Example 3); format: in vivo, female Balb/C mice; settings: for Spleen weight: day seven after 5-FU 150 mg/kg i.p., i.p. doses equimolar to uridine 300 mg/kg/treatment; for HCT % / Lym / Neut / RBC / WBC: eleven days after 5-FU; for Spleen weights: day eleven after 5-FU, in mg
Method: Ninety-eight female Balb/C mice weighing approximately 20 grams each were given a one-time 150 mg/kg injection (i.p.) of 5-FU at 1 p.m. on the initial day of the study. […] All of these doses are equimolar, and were administered in a volume of 0.4 ml by i.p. injection. The groups were treated at 3:30, 6:00, and 8:30 p.m. on the initial day with their respective agents. […] On days seven and eleven following 5-FU administration, blood (0.2–0.3 ml) was collected from seven mice in each group by retro-orbital bleeding into EDTA for subsequent differential blood cell counting. Mice were sacrificed by cervical dislocation; their right femurs removed and the contents expelled for cell counting; and their spleens removed and weighed.

[2] = system: hematopoietic system (5-FU toxicity); experiment: Octanoyluridine vs hematological toxicity of 5-FU (Example 3A); format: in vivo, Balb/C female mice; settings: seven days after 5-FU 75 mg/kg i.p.; Oct-U 100 mg/kg/treatment i.p.
Method: Fourteen Balb/C female mice weighing approximately 20 grams each were given a one-time 75 mg/kg i.p. injection of 5-FU at 11:00 a.m. on the initial day of the study. Half of these animals were subsequently treated with Oct-U (100 mg/kg/treatment, i.p.), while the other half (controls) were injected with physiological saline. Administration of Oct-U and saline occurred at 2:30, 4:30, and 7:00 p.m. on the initial day, and at 9:30 a.m., 12:00 noon, 2:30, and 5:00 p.m the following day. An additional group of seven mice (basals) received no 5-FU and no treatments.

[3] = system: CD8F1 spontaneous mammary adenocarcinoma; experiment: TAU/uridine rescue with 5-FU alone in tumor-bearing mice (Example 5); format: in vivo
Method: Sixty CD8F1 (BALB/C×[…]) female mice with first generation transplants of CD8F1 spontaneous mammary adenocarcinoma were treated with a weekly chemotherapy regimen which included a single dose of 5-FU (150 mg/kg) followed by various rescue strategies. The average tumor size was 157 mg at the start of the chemotherapy. The weekly chemotherapy course was completed three times.
In order to evaluate the various rescue therapies, the animals were divided into six groups of ten animals each as follows: […]

[4] = system: hematopoietic system (Ara-C toxicity); experiment: DAdC or PdC vs hematopoietic toxicity of arabinosyl cytosine (Example 7); format: in vivo, Balb/C female mice; settings: Ara-C 100 mg/kg i.p. daily for five days; DAdC 411 mg/kg p.o. or PdC 200 mg/kg i.p. twice daily
Method: Twenty-one Balb/C female mice weighing approximately 20 grams each received a daily intraperitoneal injection of Ara-C (100 mg/kg) for five days. These mice were divided into three treatment groups: oral administration of water (controls); oral administration of DAdC (411 mg/kg/treatment); and intraperitoneal administration of PdC (200 mg/kg/treatment in 0.2% Tween 80). Mice were treated with either water, DAdC, or PdC twice daily, at 9 a.m. and 6 p.m. Treatment volume in each case was 0.2 ml. An additional seven mice received no Ara-C and no treatment at all (basals).
On days seven and eleven following 5-FU administration, blood (0.2–0.3 ml) was collected from the seven mice in each group by retro-orbital bleeding into EDTA for subsequent differential blood cell counting. Mice were sacrificed by cervical dislocation, and their spleens removed and weighed.

[5] = system: hematopoietic system (AZT toxicity); experiment: DAdC or THU vs hematopoietic damage by i.p. AZT in Balb/C mice (Example 11); format: in vivo, female Balb/C mice; settings: for Total neutrophil counts: day thirteen, AZT + DAdC 300 mg/kg p.o. or THU […] i.p. three times daily
Method: AZT (100 mg/kg i.p.) was given three times daily at 9 a.m., 4 p.m., and 10 p.m. to twenty-one female Balb/C mice weighing approximately 20 grams each. […] Treatment volume was 0.2 ml. One group of seven mice was not given AZT or any treatment (basal).
(§1) On day thirteen blood (0.2–0.3 ml) was collected from mice in each group by retro-orbital bleeding-into EDTA for subsequent differential blood cell counting, including reticulocytes. The animals were then sacrificed by cervical dislocation; their right femurs removed and the contents expelled for cell counting; and their spleens removed and weighed.

[6] = system: hematopoietic system (AZT toxicity); experiment: Oral DAdC vs hematopoietic toxicity of i.p. AZT in DBA mice (Example 10); format: in vivo, female DBA mice
Method: AZT (100 mg/kg i.p.) was given three times daily at 9 a.m., 4 p.m., and at 10 p.m. to twenty-eight female DBA mice weighing approximately 20 grams each. Three times each day, at 9 a.m., 4 p.m., and 10 p.m., animals were treated with either water (control) or DAdC (411 mg/kg/treatment) by oral intubation. Treatment volume was 0.2 ml. One additional group of fourteen mice was not given AZT or any treatment (basal).
During the first few days of treatment a total of eight mice died from accidents occurring during oral administration of the water and DAdC. Therefore, the number of animals in the control group and the DAdC group were reduced on the days of sacrifice as follows: On day 6 there were four mice in the control group and five in the DAdC group; on day 13 there were seven in the control group and three in the DAdC group. The number of basal animals was seven at both time points.
as §1, with “days six and” for “day”, “bleeding into” for “bleeding-into”

[7] = Toxicity of oral tegafur with TAU or uracil: body weight and blood cell counts (Example 13); format: in vivo, mice; settings: alone or with uracil or TAU 4:1 molar
Method: Triacetyluridine (TAU), like other acyl derivatives of uridine and cytidine of the invention, is converted to uridine and uracil during and after absorption into the bloodstream; when present at the same time as 5-FU, both uridine and uracil are capable of potentiating 5-FU cytotoxicity. Therefore, the cytotoxicity of oral tegafur+uracil versus tegafur+TAU was assessed. Blood cell counts were utilized as an index of cytotoxicity of 5-FU in the circulation (and by extension, of antitumor potency). Body weight loss was used as an index of gastrointestinal toxicity.
Three groups of mice received tegafur by oral intubation in a dose of 400 mg/kg per mouse. The initial body weight of mice in each group was 19.0±0.6 grams. One of these groups also received uracil in a molar ratio of 4:1 to the tegafur dose, and another group received TAU, also in a 4:1 molar ratio to tegafur. Body weights were monitored. Six days after tegafur administration, blood samples were taken for differential cell counts.
All drugs were administered orally in a single dose. Blood samples were taken for cell counts 6 days after drug administration; body weights were also recorded at this time.

[8] = day seven after 5-FU, equimolar i.p. doses
[9] = AZT for thirteen days + DAdC 300 mg/kg/treatment p.o.
[10] = AZT for six days + oral DAdC 411 mg/kg/treatment
[11] = AZT for thirteen days + oral DAdC 411 mg/kg/treatment
[12] = 6 days after single oral tegafur 400 mg/kg

CCCCCCCC(=O)OCC1OC(n2ccc(=O)[nH]c2=O)C(O)C1O (stereo not shown) [Oct-U]
overall effect at the dose used ([1]; after 5-FU, OU 455 mg/kg/treatment i.p.): somewhat detrimental
Lym [2]: 4.62 ± .29 thousands per microliter
Marrow [2]: 7.73 ± .68 thousands per microliter
Neut [2]: 1.19 ± .22 thousands per microliter
PLT [2]: 1243 ± 59 K/μl
RBC [2]: 8.13 ± .14 M/μl
Spleen weight [2]: 87.2 ± 3.7 mg
WBC [2]: 5.96 ± .47 thousands per microliter

ethoxycarbonyluridine [ECU]
Spleen weight [1]: 75.7 ± 5.0 mg
Lymphocyte counts [1, 8]: 7.19±0.32 ×10^3 per microliter
White blood cell counts [1, 8]: 7.26±0.31 ×10^3 per microliter
HCT % ([1]; equimolar i.p. doses): 37.54 ± 1.0 %
Lym ([1]; equimolar i.p. doses): 4.8 ± .5 K/μl
Neut ([1]; equimolar i.p. doses): .66 ± K/μl
RBC ([1]; equimolar i.p. doses): 7.65 ± .2 M/μl
WBC ([1]; equimolar i.p. doses): 5.51 ± .64 K/μl

O=c1[nH]cc(F)c(=O)[nH]1 [5-FU, 5-fluorouracil]
Mortality ([3]; 5-FU 150 mg/kg i.p. weekly x3 + vehicle (oil-water emulsion)): 10/10
Mortality ([3]; 5-FU alone 150 mg/kg i.p. weekly x3, no rescue): 9/10

valeryluridine [VU]
Spleen weights ([1]; equimolar i.p. doses): 139.4±8.0
Spleen weight [1]: 69.1 ± 1.7 mg
Lymphocyte counts [1, 8]: 6.42±0.49 ×10^3 per microliter
Platelet counts [1, 8]: 825.7±26.7 ×10^3 per microliter
Total neutrophil counts [1, 8]: 0.141±0.027 ×10^3 per microliter
White blood cell counts [1, 8]: 6.57±0.49 ×10^3 per microliter
HCT % ([1]; equimolar i.p. doses): 38.31 ± 0.8 %
Lym ([1]; equimolar i.p. doses): 5.2 ± .4 K/μl
Neut ([1]; equimolar i.p. doses): .97 ± K/μl
RBC ([1]; equimolar i.p. doses): 7.83 ± .1 M/μl
WBC ([1]; equimolar i.p. doses): 6.31 ± .42 K/μl

CC(=O)OC[C@H]1O[C@@H](n2ccc(N)nc2=O)C[C@@H]1OC(C)=O [DAdC, diacetyldeoxycytidine]
Neut [4]: 0.42 ± .05 K/μl
PLT [4]: 728 ± 64 K/μl
Spleen [4]: 87.8 ± 3.5 milligrams
WBC [4]: 5.00 ± .42 K/μl
RBC ([5]; AZT 100 mg/kg i.p. three times daily for thirteen days + DAdC 300 mg/kg/treatment p.o.): 8.26 ± .13
HCT [5, 9]: 39.51 ± 0.61
HGB [5, 9]: 14.97 ± .15
Retic. [5, 9]: .059 ± .006
Total neutrophil counts [5]: 1.39±0.14
HCT [6, 10]: 40.84 ± 1.35
HGB [6, 10]: 13.96 ± .40
RBC [6, 10]: 9.49 ± .32
Reticulocytes [6, 10]: .205 ± .075
HCT [6, 11]: 41.53 ± 1.17
HGB [6, 11]: 13.97
RBC [6, 11]: 9.16 ± .32
Reticulocytes [6, 11]: .814 ± .069
reduction in bone marrow cellularity vs basals ([6]; day six, AZT 100 mg/kg i.p. three times daily + oral DAdC 411 mg/kg/treatment): 2.5%
Platelet counts ([6]; day thirteen, AZT + oral DAdC 411 mg/kg/treatment): 769±32

O=C1NC(O)CCN1[C@@H]1O[C@H](CO)[C@@H](O)[C@H]1O (stereo partly shown) [THU, Tetrahydrouridine, reference compound]
Total neutrophil counts [5]: 1.16±0.15

palmitoyldeoxycytidine [PdC]
Neut [4]: 1.22 ± .27 K/μl
PLT [4]: 327 ± 30 K/μl
Spleen [4]: 126.0 ± 5.3 milligrams
WBC [4]: 5.20 ± .35 K/μl

benzoyluridine [BU]
Spleen weights ([1]; equimolar i.p. doses): 126.9±12.3
Platelet counts [1, 8]: 829.6 ×10^3 per microliter
HCT % ([1]; equimolar i.p. doses): 36.87 ± 0.6 %
Lym ([1]; equimolar i.p. doses): 5.1 ± .4 K/μl
Neut ([1]; equimolar i.p. doses): 1.04 K/μl
RBC ([1]; equimolar i.p. doses): 7.62 ± .1 M/μl
WBC ([1]; equimolar i.p. doses): 6.20 ± .49 K/μl

O=c1[nH]c(=O)n(C2CCCO2)cc1F (stereo not shown) [Tegafur]
Body weight [7, 12]: 18.2 ± 0.7 grams
Neutrophils [7, 12]: 0.40 ± 0.085 K/μl
Platelets [7, 12]: 956 ± 30 K/μl
loss of body weight compared to untreated (basal) animals ([7]; oral tegafur 400 mg/kg): 7%
